This assay concerns BDF1 mice, intracerebral B16 melanoma, median survival T/C. Kind of assay: NCI In Vivo Anticancer Drug Screen. Data for tumor model B16 Melanoma (intracerebral) in B6D2F1 (BDF1) mice. As to conditions: endpoint: median survival time, higher = longer survival. How it is done:
The antitumor activity of compounds was measured in mice bearing transplantable tumors. Survival or tumor size were measured and the results are expressed as the measurement made in the treated group (T) divided by the measurement made in the vehicle treated control group (C). The tumor model used in this assay is B16 Melanoma (intracerebral) in B6D2F1 (BDF1) mice

Setting [1] is: dose: 25.0 mg/kg/injection, schedule: Q01DX009 (ip), vehicle: saline.
Where [2] appears, read: dose: 0.13 mg/kg/injection, schedule: Q01DX009 (ip), vehicle: saline.
[3] abbreviates: dose: 6.25 mg/kg/injection, schedule: Q01DX009 (ip), vehicle: other.
Where [4] appears, read: dose: 12.5 mg/kg/injection, schedule: Q01DX009 (ip), vehicle: other.
Where [5] appears, read: dose: 25.0 mg/kg/injection, schedule: Q01DX009 (ip), vehicle: other.
Setting [6] is: dose: 2.0 mg/kg/injection, schedule: Q01DX009 (ip), vehicle: water.

Several values for one entry are separate records, joined by “and”; a condition that tells them apart may be missing. Equal entries are not always repeated. Inconclusive results and toxic doses are left out.

With `CN(N=O)C(N)=O`, the T/C was 118 % of control (dose: 1.56 mg/kg/injection, schedule: Q01DX009 (ip), vehicle: saline); 112 % of control (dose: 6.25 mg/kg/injection, schedule: Q01DX009 (ip), vehicle: saline); 168 % of control under setting [1].

Regarding `CC[C@]1(O)C[C@H]2CN(CCc3c([nH]c4ccccc34)[C@@](C(=O)OC)(c3cc4c(cc3OC)N(C=O)[C@H]3[C@@](O)(C(=O)OC)[C@H](OC(C)=O)[C@]5(CC)C=CCN6CC[C@]43[C@@H]65)C2)C1`, the T/C (dose: 0.02 mg/kg/injection, schedule: Q01DX009 (ip), vehicle: saline) is 96 % of control; the T/C (dose: 0.03 mg/kg/injection, schedule: Q01DX009 (ip), vehicle: saline) is 96 % of control; the T/C (dose: 0.06 mg/kg/injection, schedule: Q01DX009 (ip), vehicle: saline) was 92 % of control and 95 % of control; the T/C under setting [2] was 117 % of control and 108 % of control; the T/C (dose: 0.26 mg/kg/injection, schedule: Q01DX009 (ip), vehicle: saline) is 100 % of control.

Take `CN(C)N=Nc1ccc2c(c1)N(C)c1ccc(Cl)cc1S2`: the T/C reads like this: under setting [3], 97 % of control; under setting [4], 101 % of control; under setting [5], 102 % of control; (dose: 100.0 mg/kg/injection, schedule: Q01DX009 (ip), vehicle: other) 112 % of control.

In the case of `Cc1[nH]c(=O)[nH]c(=O)c1N(CCF)CCCl`, the T/C under setting [6] was 107 % of control; the T/C (dose: 4.0 mg/kg/injection, schedule: Q01DX009 (ip), vehicle: water) is 104 % of control; the T/C (dose: 8.0 mg/kg/injection, schedule: Q01DX009 (ip), vehicle: water) is 112 % of control; the T/C (dose: 16.0 mg/kg/injection, schedule: Q01DX009 (ip), vehicle: water) is 104 % of control; the T/C (dose: 32.0 mg/kg/injection, schedule: Q01DX009 (ip), vehicle: water) was 102 % of control.

Regarding `COc1cccc2c1C(=O)c1c(O)c3c(c(O)c1C2=O)C[C@@](O)(C(C)=O)C[C@@H]3OC1CC(N)C(O)C(C)O1` (some centres not stated), the T/C runs as follows: under setting [2], 104 % of control; (dose: 0.25 mg/kg/injection, schedule: Q01DX009 (ip), vehicle: saline) 116 % of control and 87 % of control and 109 % of control; (dose: 0.25 mg/kg/injection, schedule: Q03HX008 (ip), vehicle: saline) 92 % of control; (dose: 0.5 mg/kg/injection, schedule: Q01DX009 (ip), vehicle: saline) 91 % of control and 104 % of control and 109 % of control; (dose: 0.5 mg/kg/injection, schedule: Q01DX009 (ip), vehicle: water) 90 % of control; (dose: 0.5 mg/kg/injection, schedule: Q03HX008 (ip), vehicle: saline) 100 % of control. Further, the T/C reads like this: (dose: 1.0 mg/kg/injection, schedule: Q01DX009 (ip), vehicle: saline) 100 % of control; (dose: 1.0 mg/kg/injection, schedule: Q01DX009 (ip), vehicle: water) 109 % of control; (dose: 1.0 mg/kg/injection, schedule: Q03HX008 (ip), vehicle: saline) 100 % of control; (dose: 2.0 mg/kg/injection, schedule: Q01DX009 (ip), vehicle: saline) 100 % of control; under setting [6], 100 % of control.

In the case of `O=C(O)CC(NC(=O)CP(=O)(O)O)C(=O)O` (configuration not stated), the T/C (dose: 32.0 mg/kg/injection, schedule: Q04DX003 (ip), vehicle: saline) is 101 % of control; the T/C (dose: 64.0 mg/kg/injection, schedule: Q04DX003 (ip), vehicle: saline) is 96 % of control; the T/C (dose: 128.0 mg/kg/injection, schedule: Q04DX003 (ip), vehicle: saline) is 90 % of control; the T/C (dose: 256.0 mg/kg/injection, schedule: Q04DX003 (ip), vehicle: saline) was 101 % of control; the T/C (dose: 512.0 mg/kg/injection, schedule: Q04DX003 (ip), vehicle: saline) is 104 % of control; the T/C (dose: 1024.0 mg/kg/injection, schedule: Q04DX003 (ip), vehicle: saline) is 110 % of control.

`COc1ccc2c(c1)CCC(c1ccccc1)=C2c1ccc(OCCN2CCCC2)cc1`: the T/C (dose: 3.0 mg/kg/injection, schedule: Q01DX005 (ip), vehicle: Klucel (hydroxypropylcellulose) (HPC)) was 97 % of control; the T/C (dose: 6.0 mg/kg/injection, schedule: Q01DX005 (ip), vehicle: Klucel (hydroxypropylcellulose) (HPC)) is 97 % of control; the T/C (dose: 12.0 mg/kg/injection, schedule: Q01DX005 (ip), vehicle: Klucel (hydroxypropylcellulose) (HPC)) was 95 % of control and 105 % of control; the T/C (dose: 24.0 mg/kg/injection, schedule: Q01DX005 (ip), vehicle: Klucel (hydroxypropylcellulose) (HPC)) is 124 % of control and 96 % of control and 108 % of control; the T/C (dose: 48.0 mg/kg/injection, schedule: Q01DX005 (ip), vehicle: Klucel (hydroxypropylcellulose) (HPC)) is 92 % of control and 112 % of control; the T/C (dose: 96.0 mg/kg/injection, schedule: Q01DX005 (ip), vehicle: Klucel (hydroxypropylcellulose) (HPC)) is 100 % of control.

On to `CCN(CC)c1ccc2cc3ccc(=[N+](CC)CC)cc-3oc2c1`, for which the T/C reads like this: (dose: 4.0 mg/kg/injection, schedule: Q01DX005 (ip), vehicle: saline) 100 % of control; (dose: 4.0 mg/kg/injection, schedule: Q01DX005 (ip), vehicle: suspension in saline) 93 % of control; (dose: 8.0 mg/kg/injection, schedule: Q01DX005 (ip), vehicle: saline) 98 % of control; (dose: 8.0 mg/kg/injection, schedule: Q01DX005 (ip), vehicle: suspension in saline) 113 % of control.

In the case of `CN(C)N=Nc1ccnc2c(Cl)cccc12`, the T/C is 110 % of control (dose: 3.12 mg/kg/injection, schedule: Q01DX009 (ip), vehicle: other); 116 % of control under setting [3]; 110 % of control under setting [4]; 108 % of control under setting [5]; 112 % of control (dose: 50.0 mg/kg/injection, schedule: Q01DX009 (ip), vehicle: other).

As to `O=[N+]([O-])O.[Ga]`, the T/C is, setting by setting: (dose: 32.0 mg/kg/injection, schedule: Q01DX005 (ip), vehicle: saline) 112 % of control; (dose: 64.0 mg/kg/injection, schedule: Q01DX005 (ip), vehicle: saline) 93 % of control and 112 % of control; (dose: 128.0 mg/kg/injection, schedule: Q01DX005 (ip), vehicle: saline) 103 % of control.

`COc1cc(NS(C)(=O)=O)ccc1Nc1c2ccccc2nc2ccccc12`: the T/C is, setting by setting: (dose: 0.5 mg/kg/injection, schedule: Q01DX009 (ip), vehicle: distilled water + Tween-80) 88 % of control; (dose: 1.0 mg/kg/injection, schedule: Q01DX009 (ip), vehicle: distilled water + Tween-80) 116 % of control; (dose: 2.0 mg/kg/injection, schedule: Q01DX009 (ip), vehicle: distilled water + Tween-80) 109 % of control; (dose: 4.0 mg/kg/injection, schedule: Q01DX009 (ip), vehicle: distilled water + Tween-80) 101 % of control; (dose: 5.0 mg/kg/injection, schedule: Q04DX003 (ip), vehicle: Klucel (hydroxypropylcellulose) (HPC)) 94 % of control; (dose: 5.0 mg/kg/injection, schedule: Q04DX003 (ip), vehicle: saline) 108 % of control. Further, the T/C (dose: 8.0 mg/kg/injection, schedule: Q01DX009 (ip), vehicle: distilled water + Tween-80) is 97 % of control and the T/C (dose: 10.0 mg/kg/injection, schedule: Q04DX003 (ip), vehicle: saline) was 112 % of control.

For `OC(CBr)C(O)C(O)C(O)CBr` (configuration not stated), the T/C is, setting by setting: under setting [1], 92 % of control; (dose: 50.0 mg/kg/injection, schedule: Q01DX009 (ip), vehicle: saline) 100 % of control and 108 % of control (2×); (dose: 100.0 mg/kg/injection, schedule: Q01DX009 (ip), vehicle: saline) 116 % of control and 117 % of control and 100 % of control; (dose: 200.0 mg/kg/injection, schedule: Q01DX009 (ip), vehicle: saline) 117 % of control and 104 % of control; (dose: 400.0 mg/kg/injection, schedule: Q01DX009 (ip), vehicle: saline) 120 % of control.

Take `Cc1ncc(CNC(=O)N(CCCl)N=O)c(N)n1`: the T/C is 179 % of control (dose: 12.5 mg/kg/injection, schedule: Q01DX009 (ip), vehicle: Klucel (hydroxypropylcellulose) (HPC)) and 105 % of control (dose: 25.0 mg/kg/injection, schedule: Q01DX009 (ip), vehicle: Klucel (hydroxypropylcellulose) (HPC)).

The values above are taken from PubChem BioAssay AID196 (DTP/NCI, 2004).
